Laboratory results published in patent publication US20070219224A1, “Compositions and Methods Relating to Pyrimidine Synthesis Inhibitors” (UAB RESEARCH FOUNDATION, THE, priority 2004, published 2007).
Entries after “also recorded” stand apart in the source; their conditions may differ. Marks after values point to notes of the source that are not given here.

Assays:
RSV-infected BALB/c mice [1] = assay: Alveolar fluid clearance (AFC) in RSV-infected mice at day 2 p.i.; type: in vivo; parameters: effect of uridine in the AFC instillate on the A77-1726 effect on AFC: dose or concentration left out as unconfirmed; conditions: for effect on RSV-mediated inhibition of AFC at day 2 p.i. (in words): added to the AFC instillate; for effect on RSV-mediated inhibition of AFC at d2 (in words): systemic treatment (leflunomide oral gavage; uridine, 6-MP i.p.)
Procedure: Preparation of viral inocula and infection of mice. […] J. Physiol. Lung Cell Mol. Physiol. […] Data for each experimental group was derived from a minimum of 2 independent infections.
(§1) Systemic inhibition of de novo pyrimidine and purine synthesis. Leflunomide (5-methylisoxazole-4-[4-trifluoromethyl]carboxanilide, 35 mg/kg in distilled water containing 1% methylcellulose) was administered once daily by oral gavage in a volume of 300 μl/mouse for 8 days prior to infection, then throughout the infection period. Vehicle controls were gavaged with an equivalent volume of 1% methylcellulose in distilled water.
To systemically block de novo pyrimidine synthesis, mice were gavaged once daily for 8 days with […] of the dihydro-orotate reductase (DHOR) inhibitor leflunomide ([…] suspended in 1% methylcellulose) or vehicle prior to infection, then at 0 and 24 hours p.i. AFC studies were performed at 48 hours p.i., with no additions to the AFC instillate.
(§2) AFC studies were performed on anesthetized, ventilated BALB/c mice with normal body temperature and blood gases, over a 30 minute period after intratracheal instillation of 0.3 ml of isosmolar NaCl containing 5% fatty acid-free BSA. The number of mice analyzed per group is listed in the relevant bar of each graph.

uninfected BALB/c mice = assay: Alveolar fluid clearance (AFC) in uninfected or mock-infected mice; type: in vivo; conditions: uninfected mice
Procedure: Systemic inhibition of de novo pyrimidine and purine synthesis. […] Vehicle controls were gavaged with an equivalent volume of 1% methylcellulose in distilled water. Uridine (1 g/kg in 0.9% NaCl) was administered by i.p. injection every 12 hours in a volume of 100 μl (8). […]
as §2

RSV-infected BALB/c mice [2] = assay: Lung water content (wet:dry weight ratio) after RSV infection; type: in vivo
Procedure: (§3) Preparation of viral inocula and infection of mice. Preparation of viral stocks and intranasal infection of eight to twelve week-old pathogen-free BALB/c mice of either sex with RSV strain A2 (10^6 PFU in 100 μl) were performed as described in Davis et al., “Nucleotide-mediated inhibition of alveolar fluid clearance in BALB/c mice after respiratory syncytial virus infection,” Am. J. Physiol. Lung Cell Mol. Physiol. 286:L112-L120. (2004). Data for each experimental group was derived from a minimum of 2 independent infections.
as §1, with “water. […]” for “water.”

UTP/ATP content of BALF = assay: Measurement of nucleotides (UTP/ATP content) in BALF of RSV-infected mice; type: in vivo, BALB/c mice; conditions: d2
Procedure: as §3
(§4) Bronchoalveolar lavage. Bronchoalveolar lavage fluid (BALF) was collected as previously described in Davis et al., (2004), using 1 ml of sterile normal saline for cytokine ELISAs, or 0.3 ml of sterile saline for nucleotide assays. Lavagates were centrifuged to remove cells and supernatants stored at −80° C.
Measurement of nucleotides in BALF. Endogenous nucleotidases in BALF were heat denatured (100° C., 3 minutes) and UTP/ATP content measured using the […] and luciferine-luciferase assays, respectively.
as §1, with “water. […]” for “water.”

[3] = test system: IFN-α, IL-1β, KC, TNF-α in BALF; assay: Measurement of proinflammatory cytokines in BALF (ELISA); type: in vivo, BALB/c mice; conditions: RSV-infected mice, d2
Procedure: as §3, §4
as §1, with “water. […].” for “water.”
Measurement of proinflammatory cytokines in BALF. Cytokine levels were determined using Quantikine M ELISA kits (R & D Systems), in accordance with manufacturer's instructions.

[4] = type: in vivo
Procedure: as §3
as §1, with “water. […]” for “water.”

RSV strain A2 = assay: RSV replication in mouse lungs; type: in vivo, Respiratory syncytial virus; conditions: RSV-infected mice, day 2 p.i.; systemic treatment
Procedure: as §3
as §1, with “water. […]” for “water.”

[5] = RSV-infected mice, day 2 p.i., final concentration 25 μM (Table 6)
[6] = RSV-infected mice, d2, inhibitor 100 μM in AFC instillate (Table 5)

C/C(O)=C(\C#N)C(=O)Nc1ccc(C(F)(F)F)cc1 [A77-1726]
effect on RSV-induced inhibition of AFC, intranasal treatment (in words) (RSV-infected BALB/c mice [1]; 50 μM in 100 μl normal saline intranasally at 24 hours p.i.): completely blocked
AFC30BASAL (mean % basal AFC after 30 minutes ± SE) (RSV-infected BALB/c mice [1]; RSV day 2 p.i., 50 μM in 100 μl normal saline intranasally 24 hours after infection): 32.68 ± 1.1 %
AFC30BASAL (mean % basal AFC after 30 minutes ± SE) (RSV-infected BALB/c mice [1]; [5]): 34.06 ± 1.88 %
effect on RSV-mediated inhibition of AFC at day 2 p.i. (in words) (RSV-infected BALB/c mice [1]): prevented; also recorded: reverses RSV-mediated inhibition of AFC
AFC30BASAL (mean % basal AFC after 30 minutes ± SE) (uninfected BALB/c mice; 50 μM in 100 μl normal saline intranasally 24 hours prior to AFC assay): 23.19 ± 5.95 %
lung wet:dry weight ratios, intranasal treatment (RSV-infected BALB/c mice [2]; A77-1726 intranasal): normalization of lung wet:dry weight ratios

CCN(CC)CCOc1ccc(C(=C(Cl)c2ccccc2)c2ccccc2)cc1 [Clomiphene]
AFC (mean % AFC ± SE) (RSV-infected BALB/c mice [1]; RSV-infected mice, d2, inhibitor 20 μM in AFC instillate (Table 5)): 31.05 ± 2.65 %
AFC30BASAL (mean % basal AFC after 30 minutes ± SE) (RSV-infected BALB/c mice [1]; RSV-infected mice, day 2 p.i., final concentration 20 μM (Table 6)): 31.0 ± 2.67 %
effect on RSV-mediated inhibition of AFC at day 2 p.i. (in words) (RSV-infected BALB/c mice [1]): blocked

COc1ccc(Cl)cc1C(=O)NCCc1ccc(S(=O)(=O)NC(=O)NC2CCCCC2)cc1 [Glibenclamide]
AFC (mean % AFC ± SE) (RSV-infected BALB/c mice [1]; [6]): 24.24 ± 4.24%
effect on RSV-mediated inhibition of AFC at day 2 p.i. (in words) (RSV-infected BALB/c mice [1]): unaffected

O=c1[nH]cnc2nc[nH]c12 [hypoxanthine]
effect of hypoxanthine in the AFC instillate on the MPA effect on AFC (RSV-infected BALB/c mice [1]; RSV-infected mice, day 2 p.i., 50 mM hypoxanthine as printed): fully reversed; also recorded: blocked

CNCCC(Oc1ccc(C(F)(F)F)cc1)c1ccccc1 (stereo not drawn) [Fluoxetine]
AFC (mean % AFC ± SE) (RSV-infected BALB/c mice [1]; RSV-infected mice, d2, inhibitor 10 μM in AFC instillate (Table 5)): 34.54 ± 0.79 %
AFC30BASAL (mean % basal AFC after 30 minutes ± SE) (RSV-infected BALB/c mice [1]; RSV-infected mice, day 2 p.i., final concentration 10 μM (Table 6)): 34.54 ± 0.79 %
effect on RSV-mediated inhibition of AFC at day 2 p.i. (in words) (RSV-infected BALB/c mice [1]): blocked RSV-mediated inhibition of AFC

CC/C(=C(\c1ccccc1)c1ccc(OCCN(C)C)cc1)c1ccccc1 [Tamoxifen]
AFC (mean % AFC ± SE) (RSV-infected BALB/c mice [1]; RSV-infected mice, d2, inhibitor 25 μM in AFC instillate (Table 5)): 34.50 ± 0.94 %
AFC30BASAL (mean % basal AFC after 30 minutes ± SE) (RSV-infected BALB/c mice [1]; [5]): 34.5 ± 0.95 %
effect on RSV-mediated inhibition of AFC at day 2 p.i. (in words) (RSV-infected BALB/c mice [1]): blocked RSV-mediated inhibition of AFC

O=c1c(-c2ccc(O)cc2)coc2cc(O)cc(O)c12 [Genistein]
AFC30BASAL (mean % basal AFC after 30 minutes ± SE) (RSV-infected BALB/c mice [1]; [5]): 20.39 ± 0.73%
effect on RSV-mediated inhibition of AFC at day 2 p.i. (in words) (RSV-infected BALB/c mice [1]): not recapitulated; also recorded: not replicated

O=C(O)c1cc([N+](=O)[O-])ccc1NCCCc1ccccc1 [NPPB, 5-nitro-2-(3-phenylpropylamino) benzoic acid]
AFC (mean % AFC ± SE) (RSV-infected BALB/c mice [1]; [6]): 32.70 ± 2.18 %
AFC30BASAL (mean % basal AFC after 30 minutes ± SE) (RSV-infected BALB/c mice [1]; RSV-infected mice, day 2 p.i., final concentration 100 μM (Table 6)): 35.12 ± 1.94 %
effect on RSV-mediated inhibition of AFC at day 2 p.i. (in words) (RSV-infected BALB/c mice [1]): blocked

apyrase
effect on RSV-mediated inhibition of AFC at day 2 p.i. (in words) (RSV-infected BALB/c mice [1]): reversed

O=c1ccn([C@@H]2O[C@H](COP(=O)(O)OP(=O)(O)OP(=O)(O)O)[C@@H](O)[C@H]2O)c(=O)[nH]1 [UTP]
effect of UTP in the AFC instillate on the VRAC inhibitor effect on AFC (RSV-infected BALB/c mice [1]; RSV-infected mice, d2, 500 nM UTP): reversed

N=C(N)NC(=O)c1nc(Cl)c(N)nc1N [AMIL, amiloride]
AFC (mean % AFC ± SE) with amiloride in instillate (RSV-infected BALB/c mice [1]; RSV-infected mice, d2, 1.5 mM amiloride added to the instillate): 22.82 ± 1.92%
AFC (mean % AFC ± SE) with amiloride in instillate (uninfected BALB/c mice; 1.5 mM amiloride added to the instillate): 14.65 ± 1.59 %

C[C@]1(C2CCCC2)Cc2cc(OCC(=O)O)c(Cl)c(Cl)c2C1=O [R(+)-IAA 94, R(+)-[(6,7-dichloro-2-cyclopentyl-2,3-dihydro-2-methyl-1-oxo-1H-inden-5yl)-oxy] acetic acid 94]
AFC (mean % AFC ± SE) (RSV-infected BALB/c mice [1]; [6]): 34.25 ± 1.98 %
effect on RSV-mediated inhibition of AFC at day 2 p.i. (in words) (RSV-infected BALB/c mice [1]): blocked

O=c1ccn([C@@H]2O[C@H](CO)[C@@H](O)[C@H]2O)c(=O)[nH]1 [Uridine]
effect of concomitant uridine on the leflunomide effect on BALF nucleotides (UTP/ATP content of BALF): reversed the effect of leflunomide on BALF UTP and ATP levels; also recorded: caused a significant increase in the BALF nucleotide content over that in untreated RSV-infected mice
effect of uridine in the AFC instillate on the A77-1726 effect on AFC (RSV-infected BALB/c mice [1]; RSV-infected mice, day 2 p.i.): fully reversed; also recorded: blocked
AFC30BASAL (mean % basal AFC after 30 minutes ± SE) (RSV-infected BALB/c mice [1]; RSV-infected mice, day 2 p.i., leflunomide 5 mg/kg oral gavage once daily, uridine 1 mg/kg i.p. q12h): 22.89 ± 2.22%
effect of concomitant uridine on the leflunomide effect on AFC (RSV-infected BALB/c mice [1]; RSV-infected mice, day 2 p.i., uridine i.p. throughout the leflunomide treatment period): prevented; also recorded: reversed
effect on RSV-mediated inhibition of AFC at d2 (in words) (RSV-infected BALB/c mice [1]): no effect on AFC
effect of concomitant uridine on the leflunomide effect on BALF cytokines ([3]; exception IFN-α): only partially reversed
effect of concomitant uridine on the leflunomide effect on weight loss ([4]; RSV-infected mice, D1 and d2): did not prevent this effect
effect of concomitant uridine on the leflunomide effect on lung water content (RSV-infected BALB/c mice [2]; day 2 p.i.): reversed this effect; also recorded: prevented this effect
virus replication in lung tissue at d2 (RSV strain A2): no effect on virus replication; also recorded: unaffected

O=C(O)c1cccnc1Nc1cccc(C(F)(F)F)c1 [Niflumic acid]
AFC (mean % AFC ± SE) (RSV-infected BALB/c mice [1]; [6]): 20.28 ± 1.53%
effect on RSV-mediated inhibition of AFC at day 2 p.i. (in words) (RSV-infected BALB/c mice [1]): unaffected

COc1c(C)c2c(c(O)c1C/C=C(\C)CCC(=O)O)C(=O)OC2 [MPA, mycophenolic acid]
AFC30BASAL (mean % basal AFC after 30 minutes ± SE) (RSV-infected BALB/c mice [1]; [5]): 26.2 ± 1.7 %
effect on RSV-mediated inhibition of AFC at day 2 p.i. (in words) (RSV-infected BALB/c mice [1]): only a minor effect
effect on RSV-mediated inhibition of AFC at day 2 p.i. (in words) (RSV-infected BALB/c mice [1]; listed as mycophenolic acid): not and only a small blocking effect

Sc1ncnc2nc[nH]c12 [6-MP, 6-mercaptopurine]
AFC30BASAL (mean % basal AFC after 30 minutes ± SE) (RSV-infected BALB/c mice [1]; [5]): 26.31 ± 1.85 %
effect on RSV-mediated inhibition of AFC at day 2 p.i. (in words) (RSV-infected BALB/c mice [1]): only a minor effect
effect on RSV-mediated inhibition of AFC at day 2 p.i. (in words) (RSV-infected BALB/c mice [1]; listed as 6-mercaptopurine): not and only a small blocking effect
effect on RSV-mediated inhibition of AFC at d2 (in words) (RSV-infected BALB/c mice [1]): no effect on AFC
BALF proinflammatory cytokine levels (IFN-α, IL-1β, KC, TNF-α) (in words) [3]: comparable decline
IFN-α, mean cytokine concentration in BALF ± SE ([3]; systemic treatment): 105 ± 14 pg/mL
IL-1β, mean cytokine concentration in BALF ± SE ([3]; systemic treatment): 9 ± 3 pg/mL
KC, mean cytokine concentration in BALF ± SE ([3]; systemic treatment): 329 ± 63 pg/mL
TNF-α, mean cytokine concentration in BALF ± SE ([3]; systemic treatment): 0*** pg/ml
tolerance to anesthesia ([4]; 6-MP 35 mg/kg i.p. every 24 hours): poor tolerance to anesthesia (resulting in sporadic deaths)
body weight loss after RSV infection ([4]; D1 and d2 p.i., versus untreated RSV-infected mice): significant increase in body weight loss
body weight during the pretreatment (preinfection) period ([4]; before RSV infection, leflunomide 8 days, 6-MP 5 days): significant loss of body weight
lung water content (wet:dry weight ratio) (in words) (RSV-infected BALB/c mice [2]; day 2, systemic treatment): did not alter lung wet:dry weight ratios
virus replication in lung tissue at d2 (RSV strain A2): no significant inhibitory effect
